This is an account of results in patent publication US11654102B2, “Cosmetic composition comprising vetiver root extract” (GIVAUDAN SA, priority 2018, dated 2023).

A short description of the data set: Solubility of zizanoic acid in water. The class given is physicochemical. Conditions: in presence of the other substances present in the extract.

Regarding `C=C1[C@H]2CC[C@H](C(=O)O)[C@@]23CC[C@H](C3)C1(C)C` [zizanoic acid], the “solubility of zizanoic acid in water” value is reported as “improved”.
